These results are taken from PMC10707468, “Pharmacokinetics of Novel Dopamine Transporter Inhibitor CE-123 and Modafinil with a Focus on Central Nervous System Distribution” (International Journal of Molecular Sciences, 2023).

Data set [1] concerns cerebEND in vitro model of the blood–brain barrier. Nature of the data set: In vitro Transwell blood-brain barrier model based on mouse cell line cerebEND. The data set is classed as in vitro ADME. Particulars: for Clin (rate of BBB transport) / Clout (rate of BBB transport): parameter used in simulation; for Pe rat: scaled with BBB surface area 180 cm2, similar permeability in rat assumed. The text has this: Research on modafinil analogs has gained significant momentum in recent decades due to the compound’s unique pharmacological properties and potential therapeutic applications. The primary objectives of these studies were to identify modafinil analogs that can address a wide range of cognitive deficits and neurological conditions effectively, with a reduced risk of side effects. In our previous study, we reported a series of modafinil analogs with higher DA reuptake inhibition activity and higher selectivity for the DAT in comparison to modafinil. These improvements were achieved by making strategic modifications involving the substitution of the carboxamide moiety with five- and six-membered aromatic heterocycles. […] In addition, Kristofova et al. (2018) have used the mouse cell line cerebEND as an in vitro model to study the ability of CE-123 to cross an in vitro model of the blood–brain barrier (BBB). […] Yet, due to significant differences in the plasma pharmacokinetic (PK) profiles, governed primarily by differences in metabolism, direct comparison between two compounds after single IP dosing could be misleading.
(§1) Table S4. Parameters used in simulation exercise.
(§2) Fraction of un bound in unitless 0.252 0.797
(§3) Rate of BBB transport parameters*
(§4) Ext ent of BBB transport and intra-brain dist ribution
(§5) Unbound brain-t o-plasma unitless 0.46 0.097 concentrati on rat io, Kp,uu,brain
(§6) Unbound volume of mL/g brain 5.21 3.73 distribution in brain, Vu,brain
(§7) Additional parameters used
(§8) Infusi on rate mg/h 0.05 1.0
(§9) * Data of blood-brain barrier per meation of 100 µM CE-123 and modafinil across an in vitro Transw ell model based on mouse cell line cerebEND were included in the simulation. Experimental procedures were published previously The permeability coefficients w ere calculated according to the clearance principle deduct ing blank inserts without cells.
(§10) **Similar apparent permeability in human BBB cell culture model and rat endot helial cells was assumed.

Data set [2] in a line: Systemic pharmacokinetic parameters used in simulation exercise. Particulars: parameter used in simulation; for clearance / Vd: plasma; for clearance: rat 0.3 kg, read-out: Systemic clearance, CL (converted); for Vd: rat, read-out: Apparent volume of distribution, Vd. The data set is classed as in vivo, rat. On the procedure:
In order to minimize the usage of animals and gain high confidence in the tissue distribution, a 4 h constant intravenous infusion study was designed based on the systemic pharmacokinetic parameters determined elsewhere. The catheters were surgically implanted a day before the PK experiment. The rats (n = 3 per compound) were then individually placed into a CMA 120 system (CMA, Solna, Sweden). […] A dose of 20 mg/kg was administered as a combination of an initial short 10 min infusion as a loading dose followed by a constant infusion up to 4 h, targeting a steady-state total plasma concentration of around 1000 ng/mL for each compound (based on the pilot study results). Blood was collected into heparinized Eppendorf tubes via a femoral artery catheter at 0 (before infusion starts) 1, 2, 3, and 4 h after the infusion started and immediately centrifuged at 10,000 rpm for 5 min at +4 °C. Plasma was then collected and kept at −20 °C. At 4 h, the rats were anesthetized via inhalation of 2.5% isoflurane (Abbot Scandinavia, Solna, Sweden), balanced with 1.5 L/min oxygen, after which the terminal blood and tissue samples were collected. […] The tissue samples (brain, spinal cord, liver, and kidney) were rapidly removed, pre-weighed into a 2 mL hard tissue homogenizing tube with mini-beads, and subsequently homogenized in 2 volumes of MQ water using a 4-Place Bead Mill Homogenizer (VWR, Stockholm, Sweden) at the maximal speed for 2 min and thereafter kept at +4 °C. The plasma and tissue homogenate samples were stored at −20 °C until LC–MS analysis.
The simulation was performed at a given initial total plasma concentration to be equal to the steady-state concentrations obtained in the neuroPK study, utilizing the parameters listed in Supplementary Table S4. A two-compartment model consisting of blood and brain compartments with a focus on the unbound concentrations was used for the simulation exercise (see details on the structure of the model in Supplementary Figure S5). The representative unbound plasma and brain profiles are presented in Supplementary Figure S6.
as §1, §2, §3, §4, §5, §6, §7, §8, §9, §10

Data set [3] in a line: NeuroPK parameters by Combinatory Mapping Approach. In kind it is in vivo. Particulars: rat; for concentration at 4 h / Kp uu at 4 h: Sprague-Dawley, intravenous, 20 mg/kg; for concentration at 4 h: brain interstitial fluid, steady state, Equation (6), read-out: Unbound-drug concentration in brain interstitial fluid, Cu,brainISF; for Kp uu at 4 h: extent of BBB transport, Equation (4), read-out: Unbound brain-to-plasma concentration ratio, Kp,uu,brain; for Kp uu: brain slices (Vu,brain) and brain homogenate (fu,brain), Equation (5), Vu,brain·fu,brain, read-out: Unbound intracellular-to-extracellular (interstitial) concentration ratio, Kp,uu,cell; for Kp,uu at the blood–spinal cord barrier (BSCB): spinal-cord-to-plasma unbound ratio. The text has this:
The neuropharmacokinetic (neuroPK) parameters of the novel DAT inhibitor as well as modafinil have so been far assessed based on the total drug concentration in the plasma and the entire brain, usually at a single time point in a non-dedicated PK study. Yet, the total brain-to-plasma concentration ratio (Kp,brain) is just one of the neuroPK parameters with a limited use for characterization of the extent of BBB transport. According to the Free Drug Theory, the concentration of unbound (free) drugs, particularly at a site of action like the brain, governs the pharmacological effect(s), emphasizing the significance of unbound drug concentrations in distribution processes. To this end, the unbound brain-to-plasma concentration ratio, Kp,uu,brain, is the key neuroPK parameter to obtain for the assessment of the extent of BBB transport. With the Combinatory Mapping Approach (CMA), evaluation of the neuroPK parameters of unbound drugs can be obtained in a more high-throughput mode, which makes it useful for CNS drug discovery. The CMA employs several in vivo and in vitro methods to provide a comprehensive assessment of drug properties concerning BBB transport and intra-brain distribution. In an in vivo neuroPK study, the total concentrations of drugs in the brain and plasma are determined at the steady state, which is pivotal for assessing Kp,brain (Figure 1(A1)). In parallel, in vitro investigations involve the determination of unbound fractions of drugs in the plasma (fu,plasma) and brain tissue binding properties (fu,brain) using equilibrium dialysis and the brain slice method (Vu,brain) (Figure 1(B1,C1)). Finally, a combination of these acquired parameters enables the estimation of Kp,uu,brain and the unbound drug cell partitioning coefficient (Kp,uu,cell). Kp,uu,brain represents the ratio of brain interstitial fluid (ISF) to the plasma unbound drug concentrations at the steady state, providing a quantitative description of the net BBB drug transport. This parameter relies on three compound-specific parameters, Kp,brain, Vu,brain, and fu,plasma. […] Kp,uu,cell represents the steady-state ratio of intracellular to extracellular unbound drug concentrations, describing the drug transport across the cellular membrane.
The unbound brain-to-plasma concentration ratio, Kp,uu,brain, was calculated by using the three compound-specific parameters: Kp,brain, Vu,brain, and fu,plasma:(4) Kp,uu,brain=Kp,brain/Vu,brain·fu,plasma
The unbound intracellular-to-extracellular (interstitial) concentration ratio, Kp,uu,cell, was estimated by using the Vu,brain and fu,brain parameters:(5) Kp,uu,cell=Vu,brain·fu,brain
Due to the multiparameter character of Kp,uu,brain and Kp,uu,cell assessment (Equations (4) and (5)), the estimation of variability around the mean values was calculated using an error propagation method as described in Loryan et al. (2017).
The Kp,uu,brain values were further used to calculate the unbound drug concentration in the brain interstitial fluid Cu,brain,ISF, according to Loryan et al. (2014):(6) Cu,brain,ISF=Kp,uu,brain·Cu,plasma

Read-outs that look alike come from different tables or passages of the source.

A word on the clearance: it is the volume of plasma or blood freed of the substance per unit of time. Turning to `NC(=O)C[S@@+]([O-])C(c1ccccc1)c1ccccc1` [R-modafinil, reference compound], in data set [1], the “Clin (rate of BBB transport)” value is 0.025 L/h, the “Clout (rate of BBB transport)” value is recorded as 0.261 L/h and the Pe rat came to 0.422 mL/min. In data set [2], the “Systemic clearance unbound, Clu” value is 1.194 L/h; the clearance is 25 mL/min; the Vd is 1.02 L. For the same molecule, in data set [3], the concentration at 4 h was determined as 0.282 µM, the Kp uu at 4 h is 0.097 ± 0.034, the Kp uu came out at 0.85 ± 0.6 and the “Kp,uu at the blood–spinal cord barrier (BSCB)” value was “dominating net active efflux”. For the same molecule, in data set [3] (brain), the Kp uu at 4 h was found to be 0.1.

Take `[O-][S@@+](Cc1cncs1)C(c1ccccc1)c1ccccc1` [S-CE-123]: in data set [1], the “Clin (rate of BBB transport)” value is 0.033 L/h, the “Clout (rate of BBB transport)” value is given as 0.071 L/h and the Pe rat is listed as 0.545 mL/min. In data set [2], the “Systemic clearance unbound, Clu” value is 0.046 L/h; the clearance was 3.07 mL/min; the Vd was 0.232 L. Besides, in data set [3], the concentration at 4 h was 0.386 µM; the Kp uu at 4 h worked out at 0.46 ± 0.032; the “fold difference in Kp,uu,brain, S-CE-123 vs R-modafinil” value was “ca. 5 fold”; the Kp uu was determined as 0.18 ± 0.09. The “Kp,uu at the blood–spinal cord barrier (BSCB)” value in data set [3] is recorded as “closer to unity”. Further, the Kp uu at 4 h in data set [3] (brain) came out at 0.5.
